{"source": "patent US20040224884A1", "about": "“Methods of screening for apoptosis-controlling agents for bone anabolic therapies and uses thereof” (priority 1998, published 2004)", "key": {"[1]": {"system": "osteoblastic cells derived from murine calvaria", "assay": "Etoposide-induced apoptosis of osteoblastic cells, trypan blue uptake", "assay_type": "cell-based", "description": "Osteoblastic cells derived from murine calvaria were pretreated with the sterols for 1 hour before the addition of the pro-apoptotic agent, etoposide. Apoptosis was determined after 6 hours by trypan blue uptake (Jilka et al, J. Bone and Min. Res. 13:793:802, 1998). * indicates p<0.05 versus etoposide alone, by analysis of variance (ANOVA) (Student-Newman-Keuls method).\nOsteoblastic cells derived from murine calvaria were pretreated for 1 hour with the pure receptor antagonist ICI182,780 (10^−7 M) before the addition of the test agents (10^−8 M). Apoptosis was induced and quantified as described in FIG. 3. * indicates p<0.05 versus etoposide alone, by ANOVA (Student-Newman-Keuls method).\nIn this experiment, osteoblastic cells were derived from murine calvaria and were pretreated with the sterols for 1 hour before the addition of the pro-apoptotic agent, etoposide.\nIn these experiments, cells were pretreated with the indicated concentrations of the various compounds for 1 hour, in the absence or presence of the androgen receptor antagonist flutamide, before the addition of the proapoptotic agent etoposide. Apoptosis was determined after 6 hours by trypan blue uptake as described in FIG. 3."}, "[2]": {"biological_target": "T1, murine estrogen receptor-beta (mERβ) (Mus musculus, UniProt O08537)", "T1 construct": "expressed in transfected cells", "T1 sequence (O08537 whole entry)": "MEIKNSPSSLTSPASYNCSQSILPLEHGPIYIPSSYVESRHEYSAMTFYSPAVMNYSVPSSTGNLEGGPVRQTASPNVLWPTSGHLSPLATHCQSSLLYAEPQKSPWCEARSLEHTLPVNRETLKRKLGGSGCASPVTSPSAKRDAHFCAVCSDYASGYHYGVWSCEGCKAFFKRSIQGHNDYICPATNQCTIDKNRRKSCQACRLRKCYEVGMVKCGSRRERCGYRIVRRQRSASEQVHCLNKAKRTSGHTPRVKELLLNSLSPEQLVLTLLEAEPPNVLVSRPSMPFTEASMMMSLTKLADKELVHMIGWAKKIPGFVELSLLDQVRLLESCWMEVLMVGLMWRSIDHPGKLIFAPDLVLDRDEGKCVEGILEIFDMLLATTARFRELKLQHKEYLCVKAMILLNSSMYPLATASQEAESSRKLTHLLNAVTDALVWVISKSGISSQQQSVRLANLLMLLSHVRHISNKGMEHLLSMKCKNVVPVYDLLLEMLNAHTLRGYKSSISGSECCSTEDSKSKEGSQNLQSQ", "assay": "Etoposide-induced apoptosis in HeLa cells stably transfected with mERβ", "assay_type": "cell-based, human", "settings": "10^−8 M, 1 h; etoposide 5×10^−5 M, 6 hour", "text": "CMV promoter alone and CMV promoter-driven cDNA for mERα or mErβ were stably transfected into HeLa cells. […] Cells were trypsinized, pelleted and trypan blue positive cells enumerated.\nIn this experiment, instead of calvaria cells, human HeLa cells which contain undetectable, if any, estrogen receptor were used. HeLa cells were stably transfected with either a CMV promoter-driven cDNA for the murine estrogen receptor-alpha (mERα) or a CMV promoter-driven cDNA for the murine estrogen receptor-beta (mERβ). […] Cells were trypsinized, pelleted and trypan blue positive cells were enumerated."}}, "data": [{"smiles": "C[C@@]12CCC[C@H]1[C@@H]1CCc3cc(O)ccc3[C@H]1CC2", "note": "[estratriene-3-ol]", "values": [{"measurement": "potency in inhibiting apoptosis relative to 17β estradiol", "setting": "[1]", "result": "as potent a s 17β estradiol"}, {"measurement": "inhibition of etoposide-induced osteoblastic cell apoptosis", "setting": "[1]; pretreated 1 hour before etoposide, apoptosis after 6 hours by trypan blue uptake", "result": "inhibition of etoposide-induced osteoblastic cell apoptosis was demonstrated"}, {"measurement": "anti-apoptotic effect on osteoblastic cells after pretreatment with ICI182,780", "setting": "[1]; test agent 10^−8 M, ICI182,780 10^−7 M, 1 h pretreatment", "result": "abrogated"}, {"measurement": "inhibition of etoposide-induced apoptosis in HeLa cells transfected with estrogen receptor β", "setting": "[2]", "result": "potently inhibited"}]}]}
